{
  "source": "patent US20150343016A1",
  "about": "“CHEMICAL ENTITIES AND THERAPEUTIC USES THEREOF” (The Regents of the University of Colorado, a body corporate, priority 2010, published 2015)",
  "key": {"[1]": {"molecular_target": "in vitro translation in rabbit reticulocytes", "assay": "In vitro translation assay in rabbit reticulocytes with Luciferase mRNA", "assay_type": "biochemical", "method": "In vitro translation assays were performed in rabbit reticulocytes (Promega) according to manufacturer's instruction, in the presence or absence of Bouvardin at final concentrations shown. Luciferase mRNA provided in the kit was used at a final concentration of 1 ug/ul. The reactions samples were incubated for 15 minutes at 37° C. and quenched by dilution with water. Luciferase activity was measured using a plate reader Multi-Mode Microplate Reader (Synergy 2 by BioTek) immediately after luciferase substrate addition. Samples were also subjected to electrophoresis on SDS-polyacrylamide gels and immunoblotted with goat polyclonal α-luciferase primary antibodies (Promega) and donkey anti-goat IgG, HRP secondary antibodies (Promega). The blots were visualized using chemiluminescence detection (Pierce). (A) Luciferase activity at different concentrations of Bouvardin. Error bars show SEM from triplicate samples. (B) Luciferase protein levels in corresponding samples."}, "[2]": {"tested_on": "head and neck squamous cell carcinola line (UMSCC2B)", "assay": "MTT assay, bouvardin with radiation, UMSCC2B", "assay_type": "cell-based, human", "conditions": "over a wide range of concentrations", "method": "MTT assays were used to test the effects of bouvardin alone and in combination with radiation on numerous cell lines. Bouvardin and radiation synergize in non-small cell lung cancer cell line (H157) and head and neck squamous cell carcinola line (UMSCC2B) over a wide range of concentrations between bouvardin and radiation. FIG. 8 depicts this synergy in these two cell lines. The efficiency of bouvardin in sensitizing cancer cells to radiation is measured in terms of Combination Index (CI) as determined by Calcusyn software. CI values are either above, below or equal to 1, indicating antagonizing, synergistic or additive effects respectively. “Gy” in FIG. 8 stands for “Gray,” a radiation unit.\n(§1) The growth inhibitory effects of Bouvardin with ionizing radiation (IR) were evaluated using a modified tetrazolium salt (MTT) assay. In the MTT assay, 1,000 to 2,000 viable cells were plated in 100 uL of growth medium in 96-well plates (Corning, Ithaca, N.Y.). Following an overnight incubation, drug was added in varying concentrations and the plates were irradiated on the same day (co-treatment) or 24 hr later (pre-treatment) and incubated for 6 to 7 days. The tetrazolium salt was added at a concentration of 0.4 mg/mL to each well following the 6- to 7-day treatment. […] The absorbency of each well was measured using an automated plate reader (Molecular Devices, Sunnyvale, Calif.). […]"}, "[3]": {"assay": "LD50 in mice", "conditions": "mouse, in vivo"}, "[4]": {"tested_on": "17 cell lines including Head and Neck Squamous Cell Carcinoma and non-small cell lung cancer lines", "assay": "MTT assays, Bouvardin with radiation, panel of 17 cell lines", "assay_type": "cell-based, human", "excerpt": "The observation that Bouvardin enhanced the effect of radiation on Drosophila larvae led us to question whether this effect would translate to a mammalian system. In order to determine what cell lines should be used to create tumor xenografts in mice, MTT assays for cell viability were used first to test the effects of Bouvardin alone and in combination with radiation in human cancer cells. MTT assays measure cell viability by measuring mitochondrial enzyme function. We used 17 cell lines including Head and Neck Squamous Cell Carcinoma and non-small cell lung cancer lines.\nThe data for non-small cell lung cancer cell line (H157) is depicted in FIG. 16.\nas §1, with “treatment. The plates were incubated with the salt for 4 hours at 37° C.” for “treatment.”"}},
  "data": [
    {"smiles": "COc1ccc(C[C@H]2C(=O)N[C@H](C)C(=O)N(C)[C@@H]3C(=O)N(C)[C@@H](Cc4ccc(O)c(c4)Oc4ccc(cc4)[C@H]3O)C(=O)N[C@@H](C)C(=O)N[C@H](C)C(=O)N2C)cc1", "note": "(stereo in doubt) [Bouvardin, bouvardin]", "values": [
      {"measurement": "IC50 in in vitro translation reactions", "setting": "[1]", "result": "nM range"},
      {"measurement": "effect on in vitro translation (luciferase activity and protein)", "setting": "[1]; 15 minutes at 37° C.", "result": "inhibits translation"},
      {"measurement": "interaction of Bouvardin with radiation", "setting": "[2]", "result": "synergize"},
      {"measurement": "LD50", "setting": "[3]", "result": 12.4, "unit": "mg/kg"},
      {"measurement": "interaction of Bouvardin with radiation across the panel", "setting": "[4]", "result": "synergize in most, but not all of these cell lines"}
    ]}
  ]
}
